The source of these data is ChEMBL document CHEMBL1122884, “Syntheses and complement inhibitory activities of 4-(2-phenyl-1H-indol-3-yl)cyclohexane-1-carboxylic acids” (J Med Chem, 1985).

For assay [1], the species on record is Homo sapiens. Description: In vitro inhibitory activity against human classical complement pathway. It counts as functional.
The test system of assay [2] is Cavia porcellus. Description: Inhibition dose of the Reverse Passive Arthus Reaction (RPAR) in guinea pig after intravenous administration at a dose 80 mg/kg. It counts as functional.

As a reminder, the IC50 is the concentration at which inhibition is half-maximal. Low values mean greater potency in that assay, high ones weaker potency in that assay. The term inhibition in vivo denotes the relative decrease from the control value, in per cent. High values mean a response far below the control, low ones a response near the control. In assay [1], `O=C(O)C1CC=C(c2c(-c3ccccc3)[nH]c3ccccc23)CC1` (stereo not drawn) returned an IC50 of 135 µM. This compound gave an inhibition in vivo at 80 mg/kg in assay [2] of 64%.
Turning to `O=C(O)c1ccc(-c2c(-c3ccccc3)[nH]c3ccccc23)cc1`, the 50% inhibitory concentration (IC50) in assay [1] was 105 µM.
